Target: T1, androgen receptor (AR) (Homo sapiens, UniProt P10275)
T1 construct: AR from LNCaP cytosol (LBD site)
T1 sequence (P10275 1-920): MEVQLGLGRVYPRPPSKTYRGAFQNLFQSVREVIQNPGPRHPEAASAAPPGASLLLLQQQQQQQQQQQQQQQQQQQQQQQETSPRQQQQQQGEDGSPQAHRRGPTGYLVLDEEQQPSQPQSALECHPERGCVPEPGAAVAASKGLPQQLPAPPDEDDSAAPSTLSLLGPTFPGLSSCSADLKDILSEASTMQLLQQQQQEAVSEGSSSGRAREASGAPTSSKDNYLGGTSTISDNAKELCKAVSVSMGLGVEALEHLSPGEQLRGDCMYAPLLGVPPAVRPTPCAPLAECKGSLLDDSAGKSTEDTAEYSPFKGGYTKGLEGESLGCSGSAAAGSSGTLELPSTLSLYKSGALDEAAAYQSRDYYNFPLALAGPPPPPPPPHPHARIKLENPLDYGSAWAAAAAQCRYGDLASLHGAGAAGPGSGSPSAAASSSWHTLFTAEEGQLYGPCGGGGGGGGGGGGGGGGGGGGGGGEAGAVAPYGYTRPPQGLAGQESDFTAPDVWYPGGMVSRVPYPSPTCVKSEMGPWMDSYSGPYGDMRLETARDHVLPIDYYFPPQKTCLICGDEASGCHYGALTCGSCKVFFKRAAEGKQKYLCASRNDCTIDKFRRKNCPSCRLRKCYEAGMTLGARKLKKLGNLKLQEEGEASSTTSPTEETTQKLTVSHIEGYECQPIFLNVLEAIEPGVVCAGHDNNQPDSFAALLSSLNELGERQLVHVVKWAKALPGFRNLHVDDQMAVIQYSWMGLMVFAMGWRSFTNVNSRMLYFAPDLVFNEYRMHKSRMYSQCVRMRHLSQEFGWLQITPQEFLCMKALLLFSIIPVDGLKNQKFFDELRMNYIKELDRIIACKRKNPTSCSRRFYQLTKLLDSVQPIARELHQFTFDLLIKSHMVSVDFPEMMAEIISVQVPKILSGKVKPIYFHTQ
Assay: [3H]DHT competitive radioligand binding; also BLI and FP on AR LBD, and SPR (KD […]) and BLI on AR AF1 ([…] aa)

## Cc1noc(C)c1COc1ccc(C(=O)Nc2nc(-c3cccs3)cs2)cc1 [Z15, 4-[(3,5-Dimethyl-4-isoxazolyl)methoxy]-N-4-[(2-thienyl)-2-thiazole]-benzamide]
  IC50: 0.0633 µM

From article PMC9901937, “Selective androgen receptor degrader (SARD) to overcome antiandrogen resistance in castration-resistant prostate cancer” (eLife, 2023)
